pIC50: −log10 of the molar value. Starred links: 1 amine or outer side, 2 acyl side, 3 side chain; linkers in the order of their positions; H or OH if unused. Positions of bridges follow the written chain, without caps; N, C: chain ends. Non-standard residues stand in square brackets, D forms with d. Residues, ends and D or L forms follow the SMILES beside them. Primed or numbered codes have the meaning given here. Chains are numbered I, II in the order given. No end group written: not given here. Ida = iminodiacetic acid linker, its two carboxyls bind the Lys side-chain amines of two peptides, giving a homodimer; Ida(3) = iminodiacetic acid linker, Lys side-chain amines bound to its two carboxyl groups; Ida(4) = iminodiacetic acid linker (dimerization linker bound to lysine side chain); X1 = CC(C)(C)OC(=O)NCCC(=O)N(CCC(=O)[*:1])CCN(CCC(=O)[*:2])C(=O)CCNC(=O)OC(C)(C)C; ATA = not defined here; Ahx = NCCCCCC(=O)O
test system: HUVECs; assay type: cell-based; details: 48 h
Summary of the method: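 Proliferation read-out: BrdU incorporation after 48-hour culture (37 ° C, 5% CO2) with graded peptide doses. Cells were in EBM with 2% FCS at 5,000 per well, driven by VEGF (5 ng/ml) or bFGF (10 ng/ml), added after ≥12-hour attachment.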

Molecule	pIC50
CC[C@H](C)[C@H](NC(=O)[C@H](C)NC(=O)[C@@H](NC(=O)[C@H](CCSC)NC(=O)[C@H](CCC(N)=O)NC(=O)[C@H](CCCNC(=N)N)NC(=O)[C@H](CCCNC(=N)N)NC(=O)[C@H](CCCNC(=N)N)NC(=O)[C@H](CCCNC(=N)N)NC(=O)[C@H](C)NC(C)=O)C(C)C)C(=O)N[C@@H](Cc1ccc(O)cc1)C(=O)N[C@@H](Cc1ccccc1)C(=O)N[C@@H](CCCCNC(=O)CN(CC(=O)NCCCC[C@H](NC(=O)[C@H](Cc1ccccc1)NC(=O)[C@H](Cc1ccc(O)cc1)NC(=O)[C@@H](NC(=O)[C@H](C)NC(=O)[C@@H](NC(=O)[C@H](CCSC)NC(=O)[C@H](CCC(N)=O)NC(=O)[C@H](CCCNC(=N)N)NC(=O)[C@H](CCCNC(=N)N)NC(=O)[C@H](CCCNC(=N)N)NC(=O)[C@H](CCCNC(=N)N)NC(=O)[C@H](C)NC(C)=O)C(C)C)[C@@H](C)CC)C(N)=O)C(=O)CCNC(=O)OC(C)(C)C)C(N)=O [Peptide 385]	> 5.00
CC[C@H](C)[C@H](NC(=O)[C@H](C)NC(=O)[C@@H](NC(=O)[C@H](CCCNC(=N)N)NC(=O)[C@H](CCC(N)=O)NC(=O)[C@H](CCCNC(=N)N)NC(=O)[C@H](CCCNC(=N)N)NC(=O)[C@H](CCCNC(=N)N)NC(=O)[C@H](CCCNC(=N)N)NC(=O)[C@H](C)NC(C)=O)C(C)C)C(=O)N[C@@H](Cc1ccc(O)cc1)C(=O)N[C@@H](Cc1ccccc1)C(=O)N[C@@H](CCCCNC(=O)CCN(CCN(CCC(=O)NCCCC[C@H](NC(=O)[C@H](Cc1ccccc1)NC(=O)[C@H](Cc1ccc(O)cc1)NC(=O)[C@@H](NC(=O)[C@H](C)NC(=O)[C@@H](NC(=O)[C@H](CCCNC(=N)N)NC(=O)[C@H](CCC(N)=O)NC(=O)[C@H](CCCNC(=N)N)NC(=O)[C@H](CCCNC(=N)N)NC(=O)[C@H](CCCNC(=N)N)NC(=O)[C@H](CCCNC(=N)N)NC(=O)[C@H](C)NC(C)=O)C(C)C)[C@@H](C)CC)C(N)=O)C(=O)CCNC(=O)OC(C)(C)C)C(=O)CCNC(=O)OC(C)(C)C)C(N)=O [Peptide 331] (I: Ac-ARRRRQRVAIYFK-NH2 / II: Ac-ARRRRQRVAIYFK-NH2; linker I:13-II:13 via X1; C-terminus assumed)	> 5.00

same assay, conditions: HUVEC proliferation, bFGF at 10 ng/ml or VEGF at 5 ng/ml, 48 hours, BrdU incorporation; read-out: IC50 on HUVECs

Molecule	pIC50
418 (Ac-ARRRRQPVAIYFK; not fully specified (residue 13, C-terminus); also: homodimer of residues 1-13 via Ida linker on K13 side chain) [compound 418]	> 5.00
230 (XRHRRQRVRIIF; Xaa = Acylated Histidine; Dimeric peptide wherein the C terminus of Phe in position 12 of one peptide chain is covalently bound to one of the amino groups of a Lysine linker and Phe of the remaining peptide chain is covalently bound to the other amino group of the Lysine linker.) [compound 230]	> 5.00
301 (Ac-RRRRRQAVRITITFK-NH2; not fully specified (residue 15); also: homodimer: Lys15 side chain bound to Ida linker) [compound 301]	> 5.00
402 (Ac-FRRRRQAVAIYFK(Ida(3))-NH2; also: homodimer via Ida linker on Lys13 side chain, Ida amine Boc) [compound 402]	> 5.00
KTKRKRKKQRVKIAYEEIFVKN [compound 13]	> 5.00
KTKRKRKKARVKIIFVQNM [compound 115]	> 5.00
KTKRKRKKQRVKIIFVQNM [compound 33]	> 5.00
259 (Ac-ARRRR[dQ]RVAIIFK-NH2; not fully specified (residue 13); also: homodimer via Ida linker on Lys13 side chains) [compound 259]	> 5.00
KKQRVKIAYEEIFVKNM [compound 12]	> 5.00
452 (Ac-PRRRRQAVAIVFK-NH2; not fully specified (residue 13); also: homodimer via Ida linker at K13) [compound 452]	> 5.00
263 (Ac-A[dR]RRRQRVAIIFK-NH2; not fully specified (residue 13); also: homodimer via Ida linker on Lys13 side chains) [compound 263]	> 5.00
474 (Ac-PRRRMQAVAIYFK(Ida(3)); not fully specified (C-terminus); also: homodimer via Ida linker on Lys13 side chain) [compound 474]	4.52 to 5.00
446 (Ac-RRRRRQAVAIYFK(ATA); reading uncertain; also: homotrimer via Ata linker at K13) [compound 446]	> 5.00
59 ([Ahx]RTRRRRRRQRVRIAYEEIFVRNM; also: homodimer of residues 1-24 via Ida linker on Ahx amino group) [compound 59]	< 4.52
KTKRKRKKQRVKIAAEEIFVQNM [compound 49]	< 4.52
KRKKQRVKIAYEEIFV [compound 63]	> 5.00
400 (Ac-DRRRRQAVAIYFK; not fully specified (residue 13, C-terminus); also: homodimer of residues 1-13 via Ida linker at Lys13 side chain) [compound 400]	> 5.00
366 (Ac-ARRRRQRVAHYFK-NH2; not fully specified (residue 13); also: homodimer of residues 1-13 via Ida linker on K13 side chain) [compound 366]	< 4.52
KTARKRKKQRVKIIFVQNM [compound 121]	> 5.00
173 (Ac-ARRRRQRVRIIF; also: homodimer: C-terminal Phe12 of each chain bound to one amino group of a Lys linker) [compound 173]	> 5.00
341 (Ac-RRHRHQRVHIYFK(Ida(3))-NH2; also: homodimer via Lys13 side chain, Ida linker (Ida amino group Boc)) [compound 341]	> 5.00
KTKRKRKKQRVKIAYEEI [compound 17]	4.52 to 5.00
KKSSKRAKTQRRRKSFVKMYENIH [compound 8]	< 4.52

Molecule	pIC50
266 (Ac-RRRRRQAVAIWFK; not fully specified (C-terminus); also: homodimer: side chain of Lys13 bound to an Ida linker) [compound 266]	> 5.00
194 (Ac-ARRRAQRVRIIF; also: dimer: C-terminal Phe bound to an amino group of a Lys linker, 2 chains per Lys) [compound 194]	> 5.00
249 (Ac-RRRRRQAVAIEFK; not fully specified (C-terminus); also: homodimer: side chain of Lys13 bound to an Ida linker) [compound 249]	4.52 to 5.00
419 (Ac-ARRRRQQVAIYFK; not fully specified (residue 13, C-terminus); also: homodimer of residues 1-13 via Ida linker on K13 side chain) [compound 419]	> 5.00
1 ([Ahx]RTRRRRRRQRVRIAYEEIFVRNM) [compound 1]	> 5.00
KAARKRKKQRVKIAYEEIFVQNM [compound 56]	4.52 to 5.00
316 (Ac-ARRRRQAVHIYFK(Ida)-NH2; also: homodimer via Ida linker on Lys13 side chain) [compound 316]	> 5.00
240 (Ac-RRHHRQRVRIIF; also: dimer via C-terminal Phe to Lys linker) [compound 240]	> 5.00
RKRKKQRVKIAYEEIF [compound 67]	< 4.52
KTKRKRKKQRVKIAYEEIFAANM [compound 46]	4.52 to 5.00
501 (Ac-PRRERQAVAIYFK; not fully specified (residue 13, C-terminus); also: homodimer via Ida linker on Lys13 side chain) [compound 501]	> 5.00
334 (Ac-ARRRRQRVAIYFK; not fully specified (residue 13, C-terminus); also: homodimer via Ida linker on Lys13 side chain, acetate salt) [compound 334]	> 5.00
27 (Ac-RTRRRRRRQRVRIAYEEIFVRNM[Ahx]K; not fully specified) [compound 27]	4.52 to 5.00
386 (Ac-ARRRRQNVAIYFK-NH2; not fully specified (residue 13); also: homodimer via Ida linker on Lys13 side chain, Ida amine Boc) [compound 386]	> 5.00
410 (Ac-SRRRRQAVAIYFK; not fully specified (residue 13, C-terminus); also: homodimer via Ida linker on Lys side chains, linker at 13 via Ida, other end not in the chain) [compound 410]	> 5.00
KRKKQRVKIIF [compound 83]	< 4.52
KTKRKRAKQRVKIIFVQNM [compound 117]	> 5.00
482 (Ac-PRRRRQAVAIKF; not fully specified (residue 11); also: homodimer via Ida linker on Lys11 side chain) [compound 482]	> 5.00
RKRKKQQRVKIAYEEIFV [compound 76]	< 4.52
28 (Ac-RTRRRRRRQRVRIAYEEIFVRNM[Ahx]K-NH2; not fully specified (residue 25); also: homodimer via Ida linker on Lys25 side chain, Ida amino group carries Boc) [compound 28]	> 5.00
KKKKKMPKLRFASRIRKIRKKQF [compound 71]	4.52 to 5.00
431 (Ac-ARRRRQAVAIYK(Ida(4))F; also: homodimer via Ida linker at K12) [compound 431]	> 5.00
224 (Ac-ARRRRQRVAIHFK; also: homodimer via Ida linker on side chain of Lys13) [compound 224]	> 5.00

— US20070203066A1, “Compositions and methods for inhibiting cellular proliferation” (priority 2005, published 2007)
